Experimental data published in patent US8598157B2, “5-alkynyl-pyridines” (Boehringer Ingelheim International GmbH, priority 2011, dated 2013).

Assays:
MCF7 cells = experiment: alamarBlue MCF7 cell assay (antiproliferative/cytotoxicity); assay type: cell-based; conditions: MCF7 human breast cancer cell line
Excerpt: (§1) The H460, MB453, U87, MCF7 and BT474 alamarBlue cell assays provide EC50 values indicative of the antiproliferative or cytotoxic effects of the compounds to respectively the H460 (human non small cell line cancer), MB-453 (breast cancer cell line), U87 (glioblastoma cell line), MCF7 (breast cancer cell line) and BT474 (breast cancer cell line). As known in the field, antiproliferative or cytotoxic effect against this cell lines would be expected to be indicative of activity in treating lung, breast and brain cancers. See R. Marone R et al. Biochim. Biophys. Acta. 2008 January; 1784(1):159-85. S. Yaguchi et al., J. Natl. Cancer Inst. 2006 Apr. 19; 98(8):545-56.
(§2) Method Type: Antiproliferative/Cytotoxicity
(§3) alamarBlue® is designed to provide a rapid and sensitive measure of cell proliferation and cytotoxicity in various human and animal cell lines. The assay is based on the reduction of alamarBlue in the reducing environment of living (metabolically active) cells. In the presence of added cytotoxic or antiproliferative compounds, the innate metabolic activity ceases.
(§4) AlamarBlue is soluble and stable in culture medium. Measurements are made fluorometrically by exciting at 530-560 nm and measuring emission at 590 nm. In reporting percent alamarBlue reduction by monitoring fluorescence, data are expressed as fluorescence emission intensity units as a function of time of incubation.
(§5) 3. Equipment • 96-well plates, flat bottom (Falcon, Cat. No.: 353072) • 96-well plates, U-shaped (Costar, Cat. No.: 3799) • CO2-Incubator • Microplate Reader, Spectramax Plus, Molecular Devices 4. Typical Procedure • Day 0: Seed 3000 BT-474 cells (IMDM/5% FCS, 1% NEAA, 1% Sodiumpyruvat) in 150 μl medium into a 96-well plate, flat bottom (include mediumblank). Incubate plates at 37° C. in a CO2 incubator overnight. • Day 1: Dilute compounds to a concentration 40 μM->1:3 in medium, 10 dilution steps, in 96-well plates. • Add 50 μl per well of each dilution (total volume per well 200 μl; final conc. of cpds: 10 μM->1:3). If required, test further dilutions. • All concentrations are tested in duplicates. • Controls: Cells w/o cpd. (+50 μl medium/DMSO). • Cells are incubated with compounds for 5-6 days. • Day 6 or 7: Add 25 μl of alamarBlue solution to each well and incubate for 8 hours at 37° C. Measure fluorescence by exciting at 530-560 nm and measuring emission at 590 nm. 5. Evaluation • Subtract average value for medium blank from sample readings • Calculate EC50 using GraphPad Prism (Fifty)

H460 cells = experiment: alamarBlue H460 cell assay (antiproliferative/cytotoxicity); assay type: cell-based; conditions: NCI-H460; H460 human lung carcinoma cells
Excerpt: as §1, §2, §3, §4, §5

BT474 cells = experiment: alamarBlue BT474 cell assay (antiproliferative/cytotoxicity); assay type: cell-based; conditions: BT-474 human breast cancer cell line
Excerpt: as §1, §2, §3, §4, §5

U87 cells = experiment: U87 cell assay (antiproliferative/cytotoxicity); assay type: cell-based; conditions: U-87MG human glioblastoma cells
Excerpt: as §1, §2, §3, §4, §5

MB453 cells = experiment: alamarBlue MB453 cell assay (antiproliferative/cytotoxicity); assay type: cell-based; conditions: Homo sapiens; MDA MB 453 breast cancer cell line
Excerpt: as §1, §2, §3, §4, §5

PI3Kalpha = PI3Kalpha (Homo sapiens (Human), UniProt P42336); experiment: Inhibition of PI3Kalpha-induced PIP-2 phosphorylation (filter-binding assay); assay type: biochemical; conditions: 33P-ATP, p85alpha/His-p110alpha, read-out: IC50 PI3Kα
Chain of PI3Kalpha (P42336 whole entry): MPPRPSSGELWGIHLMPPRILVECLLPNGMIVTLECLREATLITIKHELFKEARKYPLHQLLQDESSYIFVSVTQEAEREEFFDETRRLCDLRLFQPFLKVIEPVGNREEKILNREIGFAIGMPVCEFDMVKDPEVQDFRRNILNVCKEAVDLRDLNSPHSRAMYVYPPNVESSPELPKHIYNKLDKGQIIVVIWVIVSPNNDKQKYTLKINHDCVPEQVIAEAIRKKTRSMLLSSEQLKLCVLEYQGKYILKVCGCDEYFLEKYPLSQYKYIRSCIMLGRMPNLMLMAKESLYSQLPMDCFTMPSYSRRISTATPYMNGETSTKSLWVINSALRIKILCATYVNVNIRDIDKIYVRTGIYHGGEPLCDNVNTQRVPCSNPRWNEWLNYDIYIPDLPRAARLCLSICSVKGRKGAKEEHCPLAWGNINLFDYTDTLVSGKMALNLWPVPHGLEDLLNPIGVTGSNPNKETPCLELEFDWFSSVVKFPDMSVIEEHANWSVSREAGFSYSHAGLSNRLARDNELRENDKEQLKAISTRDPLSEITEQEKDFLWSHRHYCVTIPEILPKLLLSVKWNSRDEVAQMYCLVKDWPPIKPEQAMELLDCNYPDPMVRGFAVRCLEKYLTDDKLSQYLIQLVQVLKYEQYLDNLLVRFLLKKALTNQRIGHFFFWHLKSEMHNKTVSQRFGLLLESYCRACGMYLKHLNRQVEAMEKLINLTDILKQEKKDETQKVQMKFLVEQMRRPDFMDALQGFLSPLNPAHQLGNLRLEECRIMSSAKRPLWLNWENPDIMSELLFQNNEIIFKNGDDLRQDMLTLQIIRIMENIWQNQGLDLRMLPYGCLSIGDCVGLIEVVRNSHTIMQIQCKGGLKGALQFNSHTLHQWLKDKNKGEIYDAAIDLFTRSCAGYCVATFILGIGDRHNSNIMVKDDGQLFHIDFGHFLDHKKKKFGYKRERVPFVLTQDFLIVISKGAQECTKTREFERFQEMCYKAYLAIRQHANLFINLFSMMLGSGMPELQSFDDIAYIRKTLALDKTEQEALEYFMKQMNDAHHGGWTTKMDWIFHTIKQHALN
Excerpt: Inhibition of PI3Kalpha-Induced PIP-2 Phosphorylation
This PI3Kalpha assay provides an IC50 value indicative of the activity of the compounds to inhibit PI3 kinase alpha activity. Inhibition of PI3 kinase would be expected to be indicative of activity in treating conditions of excessive or anomalous cell proliferation, such as cancers. See also J. A. Engelman, Nature Reviews Cancer, 2009, 9, 550-562; A. Carnero, Expert Opin. Investig. Drugs, 2009, 18, 1265-1277 and P. Liu et al., Nature Reviews Drug Discovery, 2009, 8, 627-64.
Method Type: Filter-Binding-Assay
Aliquoted in desired amounts and stored at −80° C. Final assay concentration 25 ng/well • Phosphotyrosin PDGFRbeta-peptide H-CGG-pY-[…]-pY-VPMLDM-NH2 was synthesized by Jerini Peptide Technologies (JPT) and used in a final conc. of 1.7 μM (stock 100 μM prepared in Assay buffer with DTT, aliquoted in desired amounts and stored at −80° C.) • Cold ATP (from Sigma; A-7699), 100 μM stock solution in H2O, use 1 μM final concentration in assay • [33P]-ATP, 370 MBq/ml from Amersham (#AH9968), use 0.5 μCi/well (10 mCi/ml) • Clear 96-well plates from Greiner (#655 162) • Filter plates: Perkin Elmer UniFilter GF/B #6005177 • Microscint 0 (from Perkin Elmer, #6013611) 2. Assay Procedure
The substrate-containing lipid vesicles are dissolved to a concentration of 0.637 mg lipid blend/ml assay buffer (with BSA, freshly added) in 50 ml Falcon->keep on ice, followed by ultrasonication (pulse of 15 sec followed by a pause of 10 sec, 4×). Compounds are serially diluted in assay buffer+6% DMSO and […] of each dilution is added per well of a 96-well plate (compounds are tested in duplicates) and mixed with 30 μl of the lipid vesicles containing PDGFR-Peptide ([…]) and PI3K alpha (25 ng/well final). The mixture is then incubated for 20 minutes at room temperature. Subsequently, 20 μl of assay buffer containing […] cold ATP and 0.5 μCi/20 μl 33P-ATP are added. The plates are then incubated at room temperature for 120 minutes (shaking with 300 rpm).
The reaction mix is transferred onto filter plates using “filtermate harvester” from Packard: filter plates are rinsed with PBS, then the reaction mix is filtered onto the filter plate, washed 5 times with PBS and are allowed to dry for 30-60 minutes at 50° C.
The plate bottom is sealed with Perkin Elmer white adhesive foil and 25 μl/well Microscint( ) are added, the top is covered with transparent adhesive foil and the plate is measured with Wallac Trilux 1450 Microbeta Counter.
As positive control serve wells containing vehicle controls (1% DMSO in assay buffer), showing non-inhibited kinase activity (high values). Wells containing assay buffer instead of enzyme can serve as control for background activity (low values).
Calculate IC50 values using the Smiley program (based on GrapPad Prism)

IC50 (PI3Kalpha) [nM] | SMILES | EC50 (MCF7 cells) [nM] | EC50 (H460 cells) [nM] | EC50 (BT474 cells) [nM] | EC50 (U87 cells) [nM] | EC50 (MB453 cells) [nM]
5 | CCCS(=O)(=O)Nc1cc(C#Cc2c(C)ncnc2N2CCOCC2)cnc1C [Example I-3, Propane-1-sulfonic acid [2-methyl-5-(4-methyl-6-morpholin-4-yl-pyrimidin-5-ylethynyl)-pyridin-3-yl]-amide] | 451 | 315 | 1040 | 529 | 777
1 | COc1cccc(S(=O)(=O)Nc2cc(C#Cc3c(C)ncnc3N3CCOCC3)cnc2C)c1 [Example I-4, 3-Methoxy-N-[2-methyl-5-(4-methyl-6-morpholin-4-yl-pyrimidin-5-ylethynyl)-pyridin-3-yl]-benzenesulfonamide] | 296 | 114 | 246 | 467 | 294
1 | Cc1ncc(C#Cc2c(C)ncnc2N2CCOCC2)cc1NS(=O)(=O)c1ccccc1Br [Example I-8, 2-Bromo-N-[2-methyl-5-(4-methyl-6-morpholin-4-yl-pyrimidin-5-ylethynyl)-pyridin-3-yl]-benzenesulfonamide] | 46 | 47 | 134 | 205 | 143
1 | Cc1ncc(C#Cc2c(C)ncnc2N2CCOCC2)cc1NS(=O)(=O)c1cn(C)cn1 [Example I-9, 1-Methyl-1H-imidazole-4-sulfonic acid [2-methyl-5-(4-methyl-6-morpholin-4-yl-pyrimidin-5-ylethynyl)-pyridin-3-yl]-amide] | 748 | 1460 | 856 | 1450 | 1070
0.72 | Cc1ncc(C#Cc2c(C)ncnc2N2CCOCC2)cc1NS(=O)(=O)c1cccs1 [Example I-10, Thiophene-2-sulfonic acid [2-methyl-5-(4-methyl-6-morpholin-4-yl-pyrimidin-5-ylethynyl)-pyridin-3-yl]-amide] | 67 | 42 | 116 | 126 | 113
1 | Cc1ccccc1S(=O)(=O)Nc1cc(C#Cc2c(C)ncnc2N2CCOCC2)cnc1C [Example I-11, 2-Methyl-N-[2-methyl-5-(4-methyl-6-morpholin-4-yl-pyrimidin-5-ylethynyl)-pyridin-3-yl]-benzenesulfonamide] | 190 | 56 | 271 | 466 | 298
4 | COCCS(=O)(=O)Nc1cc(C#Cc2c(C)ncnc2N2CCOCC2)cnc1C [Example I-12, 2-Methoxy-ethanesulfonic acid [2-methyl-5-(4-methyl-6-morpholin-4-yl-pyrimidin-5-ylethynyl)-pyridin-3-yl]-amide] | 464 | 486 | 684 | 1290 | 839

Continued, molecule first:

SMILES | IC50 (PI3Kalpha) [nM] | EC50 (MCF7 cells) [nM] | EC50 (H460 cells) [nM] | EC50 (BT474 cells) [nM] | EC50 (U87 cells) [nM] | EC50 (MB453 cells) [nM]
Cc1ncc(C#Cc2c(C)ncnc2N2CCOCC2)cc1NS(=O)(=O)c1ccccc1F [Example I-2, 2-Fluoro-N-[2-methyl-5-(4-methyl-6-morpholin-4-yl-pyrimidin-5-ylethynyl)-pyridin-3-yl]-benzenesulfonamide] | 0.65 | 43 | 234 | 148 | 342 | 168
Cc1ncc(C#Cc2c(C)ncnc2N2CCOCC2)cc1NS(=O)(=O)c1ccccc1Cl [Example I-5, 2-Chloro-N-[2-methyl-5-(4-methyl-6-morpholin-4-yl-pyrimidin-5-ylethynyl)-pyridin-3-yl]-benzenesulfonamide] | 1 | 61 | 64 | 152 | 271 | 202
Cc1ncc(C#Cc2c(C)ncnc2N2CCOCC2)cc1NS(=O)(=O)c1cccc(F)c1 [Example I-6, 3-Fluoro-N-[2-methyl-5-(4-methyl-6-morpholin-4-yl-pyrimidin-5-ylethynyl)-pyridin-3-yl]-benzenesulfonamide] | 1 | 75 | 130 | 194 | 368 | 259
Cc1ncc(C#Cc2c(C)ncnc2N2CCOCC2)cc1NS(=O)(=O)c1c(F)cccc1F [Example I-7, 2,6-Difluoro-N-[2-methyl-5-(4-methyl-6-morpholin-4-yl-pyrimidin-5-ylethynyl)-pyridin-3-yl]-benzenesulfonamide] | 0.8 | 38 | 108 | 82 | 223 | 146
Cc1ncc(C#Cc2c(C)ncnc2N2CCOCC2)cc1NS(=O)(=O)c1ccccc1C(F)(F)F [Example I-13, N-[2-Methyl-5-(4-methyl-6-morpholin-4-yl-pyrimidin-5-ylethynyl)-pyridin-3-yl]-2-trifluoromethyl-benzenesulfonamide] | 0.63 | 18 | 23 | 69 | 108 | 63
Cc1ncc(C#Cc2c(C)ncnc2N2CCCCC2)cc1NS(=O)(=O)c1ccc(F)cc1F [Example I-14, 2,4-Difluoro-N-[2-methyl-5-(4-methyl-6-piperidin-1-yl-pyrimidin-5-ylethynyl)-pyridin-3-yl]-benzenesulfonamide] | 0.85 | 114 | 245 | 252 | 615 | 444
Cc1ncc(C#Cc2c(C)ncnc2N(C)C(C)C)cc1NS(=O)(=O)c1ccc(F)cc1F [Example I-15, 2,4-Difluoro-N-{5-[4-(isopropyl-methyl-amino)-6-methyl-pyrimidin-5-ylethynyl]-2-methyl-pyridin-3-yl}-benzenesulfonamide] | 0.74 | 163 | 376 | 318 | 1670 | 898
